Assay results: ChEMBL document CHEMBL4477225, “Development of a cell viability assay to assess drug metabolite structure-toxicity relationships” (Bioorg Med Chem Lett, 2016)

Experiments:
Type in all cases: ADME, cell-based
Cytochrome P450 2C9 [1] = target: T1, Cytochrome P450 2C9 (Homo sapiens, UniProt P11712); experiment: (§1) Drug activation in human Hep3B cells assessed as human CYP2C9-mediated drug metabolism-induced cytotoxicity measured as decrease in cell viability at 28.5 uM pre-incubated with BSO for 18 hrs followed by incubation with compound for 3 hrs in presence of NADPH measured after 24 hrs in absence of compound, CYP3A4 and NADPH by cell titer-glo luminescence assay relative to BSO alone; conditions: recombinant enzyme
Cytochrome P450 3A4 [2] = target: T2, Cytochrome P450 3A4 (Homo sapiens, UniProt P08684); experiment: as §1, with “CYP3A4-mediated” for “CYP2C9-mediated”, “6.5” for “28.5”; conditions: recombinant enzyme
Cytochrome P450 2D6 [3] = target: T3, Cytochrome P450 2D6 (Homo sapiens, UniProt P10635); experiment: as §1, with “CYP2D6-mediated” for “CYP2C9-mediated”, “6.8” for “28.5”; conditions: recombinant enzyme
Cytochrome P450 2D6 [4] = target: T3, Cytochrome P450 2D6; experiment: as §1, with “CYP2D6-mediated” for “CYP2C9-mediated”, “12.8” for “28.5”; conditions: recombinant enzyme
Cytochrome P450 2C9 [5] = target: T1, Cytochrome P450 2C9; experiment: as §1, with “7.6” for “28.5”; conditions: recombinant enzyme
Cytochrome P450 3A4 [6] = target: T2, Cytochrome P450 3A4; experiment: as §1, with “CYP3A4-mediated” for “CYP2C9-mediated”, “9.6” for “28.5”; conditions: recombinant enzyme
Cytochrome P450 3A4 [7] = target: T2, Cytochrome P450 3A4; experiment: as §1, with “CYP3A4-mediated” for “CYP2C9-mediated”, “89.6” for “28.5”; conditions: recombinant enzyme
Cytochrome P450 2C9 [8] = target: T1, Cytochrome P450 2C9; experiment: as §1, with “118.7” for “28.5”; conditions: recombinant enzyme
Cytochrome P450 2D6 [9] = target: T3, Cytochrome P450 2D6; experiment: as §1, with “CYP2D6-mediated” for “CYP2C9-mediated”, “130.3” for “28.5”; conditions: recombinant enzyme
Cytochrome P450 3A4 [10] = target: T2, Cytochrome P450 3A4; experiment: as §1, with “CYP3A4-mediated” for “CYP2C9-mediated”, “89.1” for “28.5”; conditions: recombinant enzyme
Cytochrome P450 2D6 [11] = target: T3, Cytochrome P450 2D6; experiment: as §1, with “CYP2D6-mediated” for “CYP2C9-mediated”, “162.8” for “28.5”; conditions: recombinant enzyme
Cytochrome P450 2C9 [12] = target: T1, Cytochrome P450 2C9; experiment: as §1, with “200.9” for “28.5”; conditions: recombinant enzyme
Cytochrome P450 2D6 [13] = target: T3, Cytochrome P450 2D6; experiment: as §1, with “CYP2D6-mediated” for “CYP2C9-mediated”, “3.4” for “28.5”; conditions: recombinant enzyme
Cytochrome P450 2C9 [14] = target: T1, Cytochrome P450 2C9; experiment: as §1, with “2.8” for “28.5”; conditions: recombinant enzyme
Cytochrome P450 3A4 [15] = target: T2, Cytochrome P450 3A4; experiment: as §1, with “CYP3A4-mediated” for “CYP2C9-mediated”, “0.3” for “28.5”; conditions: recombinant enzyme
Cytochrome P450 3A4 [16] = target: T2, Cytochrome P450 3A4; experiment: as §1, with “CYP3A4-mediated” for “CYP2C9-mediated”, “2.2” for “28.5”; conditions: recombinant enzyme
Cytochrome P450 2C9 [17] = target: T1, Cytochrome P450 2C9; experiment: as §1, with “25.3” for “28.5”; conditions: recombinant enzyme
Cytochrome P450 2D6 [18] = target: T3, Cytochrome P450 2D6; experiment: as §1, with “CYP2D6-mediated” for “CYP2C9-mediated”, “3” for “28.5”; conditions: recombinant enzyme
Cytochrome P450 2D6 [19] = target: T3, Cytochrome P450 2D6; experiment: as §1, with “CYP2D6-mediated” for “CYP2C9-mediated”, “20.8” for “28.5”; conditions: recombinant enzyme
Cytochrome P450 3A4 [20] = target: T2, Cytochrome P450 3A4; experiment: as §1, with “CYP3A4-mediated” for “CYP2C9-mediated”, “14.9” for “28.5”; conditions: recombinant enzyme
Cytochrome P450 2C9 [21] = target: T1, Cytochrome P450 2C9; experiment: as §1, with “78.1” for “28.5”; conditions: recombinant enzyme
Cytochrome P450 3A4 [22] = target: T2, Cytochrome P450 3A4; experiment: as §1, with “CYP3A4-mediated” for “CYP2C9-mediated”, “10.7” for “28.5”; conditions: recombinant enzyme
Cytochrome P450 2C9 [23] = target: T1, Cytochrome P450 2C9; experiment: as §1, with “77.6” for “28.5”; conditions: recombinant enzyme
Cytochrome P450 2D6 [24] = target: T3, Cytochrome P450 2D6; experiment: as §1, with “CYP2D6-mediated” for “CYP2C9-mediated”, “131.3” for “28.5”; conditions: recombinant enzyme
Cytochrome P450 2D6 [25] = target: T3, Cytochrome P450 2D6; experiment: as §1, with “CYP2D6-mediated” for “CYP2C9-mediated”, “66.8” for “28.5”; conditions: recombinant enzyme
Cytochrome P450 2C9 [26] = target: T1, Cytochrome P450 2C9; experiment: as §1, with “59.9” for “28.5”; conditions: recombinant enzyme
Cytochrome P450 3A4 [27] = target: T2, Cytochrome P450 3A4; experiment: as §1, with “CYP3A4-mediated” for “CYP2C9-mediated”, “37.6” for “28.5”; conditions: recombinant enzyme
Cytochrome P450 2D6 [28] = target: T3, Cytochrome P450 2D6; experiment: as §1, with “CYP2D6-mediated” for “CYP2C9-mediated”, “8.6” for “28.5”; conditions: recombinant enzyme
Cytochrome P450 2C9 [29] = target: T1, Cytochrome P450 2C9; experiment: as §1, with “14” for “28.5”; conditions: recombinant enzyme
Cytochrome P450 2C9 [30] = target: T1, Cytochrome P450 2C9; experiment: as §1, with “28.5” left out; conditions: recombinant enzyme, 14.6 µM
Cytochrome P450 2D6 [31] = target: T3, Cytochrome P450 2D6; experiment: as §1, with “CYP2D6-mediated” for “CYP2C9-mediated”, “4.8” for “28.5”; conditions: recombinant enzyme
Cytochrome P450 2D6 [32] = target: T3, Cytochrome P450 2D6; experiment: as §1, with “CYP2D6-mediated” for “CYP2C9-mediated”, “15.2” for “28.5”; conditions: recombinant enzyme
Cytochrome P450 2C9 [33] = target: T1, Cytochrome P450 2C9; experiment: as §1, with “40.5” for “28.5”; conditions: recombinant enzyme
Cytochrome P450 3A4 [34] = target: T2, Cytochrome P450 3A4; experiment: as §1, with “CYP3A4-mediated” for “CYP2C9-mediated”, “8.5” for “28.5”; conditions: recombinant enzyme
Cytochrome P450 3A4 [35] = target: T2, Cytochrome P450 3A4; experiment: as §1, with “CYP3A4-mediated” for “CYP2C9-mediated”, “25.2” for “28.5”; conditions: recombinant enzyme
Cytochrome P450 2C9 [36] = target: T1, Cytochrome P450 2C9; experiment: as §1, with “34.1” for “28.5”; conditions: recombinant enzyme
Cytochrome P450 2D6 [37] = target: T3, Cytochrome P450 2D6; experiment: as §1, with “CYP2D6-mediated” for “CYP2C9-mediated”, “33.9” for “28.5”; conditions: recombinant enzyme
Cytochrome P450 2D6 [38] = target: T3, Cytochrome P450 2D6; experiment: as §1, with “CYP2D6-mediated” for “CYP2C9-mediated”, “129.2” for “28.5”; conditions: recombinant enzyme
Cytochrome P450 3A4 [39] = target: T2, Cytochrome P450 3A4; experiment: as §1, with “CYP3A4-mediated” for “CYP2C9-mediated”, “80.2” for “28.5”; conditions: recombinant enzyme
Cytochrome P450 2C9 [40] = target: T1, Cytochrome P450 2C9; experiment: as §1, with “210.8” for “28.5”; conditions: recombinant enzyme

T1 sequence (P11712 whole entry): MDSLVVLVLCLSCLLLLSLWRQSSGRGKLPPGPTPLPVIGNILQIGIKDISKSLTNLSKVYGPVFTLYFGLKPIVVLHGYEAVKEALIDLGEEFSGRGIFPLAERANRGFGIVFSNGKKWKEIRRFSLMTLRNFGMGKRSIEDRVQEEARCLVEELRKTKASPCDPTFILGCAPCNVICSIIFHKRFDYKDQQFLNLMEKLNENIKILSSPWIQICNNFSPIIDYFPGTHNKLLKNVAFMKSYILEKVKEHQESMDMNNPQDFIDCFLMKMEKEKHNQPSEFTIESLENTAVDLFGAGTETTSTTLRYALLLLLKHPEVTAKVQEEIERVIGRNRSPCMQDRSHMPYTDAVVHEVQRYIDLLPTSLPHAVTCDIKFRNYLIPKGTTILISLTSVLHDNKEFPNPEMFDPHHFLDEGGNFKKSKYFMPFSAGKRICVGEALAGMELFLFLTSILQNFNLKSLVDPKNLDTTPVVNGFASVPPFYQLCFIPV
T2 sequence (P08684 whole entry): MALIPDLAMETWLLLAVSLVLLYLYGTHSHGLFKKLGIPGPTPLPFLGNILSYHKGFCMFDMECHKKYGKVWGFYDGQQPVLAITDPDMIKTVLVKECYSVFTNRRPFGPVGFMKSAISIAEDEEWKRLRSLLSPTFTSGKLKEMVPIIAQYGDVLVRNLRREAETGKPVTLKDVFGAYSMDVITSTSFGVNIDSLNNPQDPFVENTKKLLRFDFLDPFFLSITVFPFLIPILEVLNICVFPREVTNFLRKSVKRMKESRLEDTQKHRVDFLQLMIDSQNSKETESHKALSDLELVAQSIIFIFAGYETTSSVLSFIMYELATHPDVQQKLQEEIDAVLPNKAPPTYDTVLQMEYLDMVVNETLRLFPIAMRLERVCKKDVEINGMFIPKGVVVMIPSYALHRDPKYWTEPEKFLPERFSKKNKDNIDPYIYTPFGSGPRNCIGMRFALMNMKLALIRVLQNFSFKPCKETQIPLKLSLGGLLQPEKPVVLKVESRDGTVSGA
T3 sequence (P10635 whole entry): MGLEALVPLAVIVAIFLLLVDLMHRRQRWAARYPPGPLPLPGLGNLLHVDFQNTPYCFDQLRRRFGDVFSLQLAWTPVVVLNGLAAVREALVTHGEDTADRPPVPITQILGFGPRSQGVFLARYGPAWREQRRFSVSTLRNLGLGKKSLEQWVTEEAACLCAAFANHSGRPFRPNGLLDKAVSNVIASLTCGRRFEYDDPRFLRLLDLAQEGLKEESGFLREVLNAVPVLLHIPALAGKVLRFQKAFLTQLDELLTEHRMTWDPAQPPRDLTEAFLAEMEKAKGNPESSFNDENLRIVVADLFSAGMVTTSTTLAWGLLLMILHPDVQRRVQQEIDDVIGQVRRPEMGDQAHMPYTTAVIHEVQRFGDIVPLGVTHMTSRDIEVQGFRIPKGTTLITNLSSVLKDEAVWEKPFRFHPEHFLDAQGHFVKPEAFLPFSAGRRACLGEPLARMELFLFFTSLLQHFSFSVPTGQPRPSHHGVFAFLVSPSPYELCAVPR

CC1=C(CC(=O)O)c2cc(F)ccc2/C1=C\c1ccc([S+](C)[O-])cc1 (configuration not stated)
fold change (FC) (Cytochrome P450 2C9 [1]): 1.6
fold change (FC) (Cytochrome P450 3A4 [2]): 6.9
fold change (FC) (Cytochrome P450 2D6 [3]): 6.7

CCC[C@@]1(CCc2ccccc2)CC(O)=C([C@H](CC)c2cccc(NS(=O)(=O)c3ccc(C(F)(F)F)cn3)c2)C(=O)O1
fold change (FC) (Cytochrome P450 2D6 [4]): 1
fold change (FC) (Cytochrome P450 2C9 [5]): 1.6
fold change (FC) (Cytochrome P450 3A4 [6]): 1.3

CN1CC(C(=O)N[C@]2(C)O[C@@]3(O)[C@@H]4CCCN4C(=O)[C@H](Cc4ccccc4)N3C2=O)C[C@@H]2c3cccc4[nH]cc(c34)C[C@H]21 (some centres not stated)
fold change (FC) (Cytochrome P450 3A4 [7]): 0.7
fold change (FC) (Cytochrome P450 2C9 [8]): 0.5
fold change (FC) (Cytochrome P450 2D6 [9]): 0.5

CN1[C@@H]2CC[C@H]1C[C@@H](OC(c1ccccc1)c1ccccc1)C2 [BENZTROPINE]
fold change (FC) (Cytochrome P450 3A4 [10]): 1.2
fold change (FC) (Cytochrome P450 2D6 [11]): 0.7
fold change (FC) (Cytochrome P450 2C9 [12]): 0.5

CC(CCc1ccc(O)cc1)NCCc1ccc(O)c(O)c1 (configuration not stated) [DOBUTAMINE]
fold change (FC) (Cytochrome P450 2D6 [13]): 89.2
fold change (FC) (Cytochrome P450 2C9 [14]): 108.1
fold change (FC) (Cytochrome P450 3A4 [15]): 1023.9

CC(C)NCC(O)c1ccc(O)c(O)c1 (configuration not stated) [ISOPROTERENOL]
fold change (FC) (Cytochrome P450 3A4 [16]): 135.8
fold change (FC) (Cytochrome P450 2C9 [17]): 11.8
fold change (FC) (Cytochrome P450 2D6 [18]): 100.1

CC[C@@H](CO)NC(=O)[C@@H]1C=C2c3cccc4c3c(cn4C)C[C@H]2N(C)C1 [METHYSERGIDE]
fold change (FC) (Cytochrome P450 2D6 [19]): 2.1
fold change (FC) (Cytochrome P450 3A4 [20]): 2.9
fold change (FC) (Cytochrome P450 2C9 [21]): 0.6

CCN(CC)CC#CCOC(=O)C(O)(c1ccccc1)C1CCCCC1 (configuration not stated) [OXYBUTYNIN]
fold change (FC) (Cytochrome P450 3A4 [22]): 4.3
fold change (FC) (Cytochrome P450 2C9 [23]): 0.6
fold change (FC) (Cytochrome P450 2D6 [24]): 0.4

CC(C)(C)NC[C@H](O)COc1ccccc1C1CCCC1 [PENBUTOLOL]
fold change (FC) (Cytochrome P450 2D6 [25]): 0.8
fold change (FC) (Cytochrome P450 2C9 [26]): 0.9
fold change (FC) (Cytochrome P450 3A4 [27]): 1.5

CC(COc1ccccc1)N(CCCl)Cc1ccccc1 (configuration not stated) [PHENOXYBENZAMINE]
fold change (FC) (Cytochrome P450 2D6 [28]): 1.5
fold change (FC) (Cytochrome P450 2C9 [29]): 0.9
fold change (FC) (Cytochrome P450 3A4 [6]): 1.3

COc1cc(NC(C)CCCN)c2ncccc2c1 (configuration not stated) [PRIMAQUINE]
FC (Cytochrome P450 2C9 [30]): 5.5
fold change (FC) (Cytochrome P450 3A4 [2]): 12.3
fold change (FC) (Cytochrome P450 2D6 [31]): 16.7

Cc1c(C)c2c(c(C)c1O)CCC(C)(COc1ccc(CC3SC(=O)NC3=O)cc1)O2 (configuration not stated) [TROGLITAZONE]
fold change (FC) (Cytochrome P450 2D6 [32]): 3.1
fold change (FC) (Cytochrome P450 2C9 [33]): 1.2
fold change (FC) (Cytochrome P450 3A4 [34]): 5.5

COc1cc(C(=O)NS(=O)(=O)c2ccccc2C)ccc1Cc1cn(C)c2ccc(NC(=O)OC3CCCC3)cc12 [ZAFIRLUKAST]
fold change (FC) (Cytochrome P450 3A4 [35]): 1.9
fold change (FC) (Cytochrome P450 2C9 [36]): 1.4
fold change (FC) (Cytochrome P450 2D6 [37]): 1.4

CN(C)C/C=C(/c1ccc(Br)cc1)c1cccnc1 [ZIMELDINE]
fold change (FC) (Cytochrome P450 2D6 [38]): 1.8
fold change (FC) (Cytochrome P450 3A4 [39]): 2.8
fold change (FC) (Cytochrome P450 2C9 [40]): 1.1
